Laboratory results from patent publication US10759831B2, “Peptide compound, production method therefor, and use thereof” (iNtRON Biotechnology, Inc., priority 2014, dated 2020).

Experiments:
[1] = system: breast cancer cell line MDA-MB-231; assay: SRB cell viability assay, breast cancer cell line MDA-MB-231; type: cell-based; settings: Homo sapiens; MDA-MB-231, 72 hours; read-out: Cell growth inhibition concentration (IC50)
Description: Regarding a lung cancer cell line A549 (Korean Cell line Bank), a colon cancer cell line HCT116 (ATCC), a stomach cancer cell line SNU638 (Korean Cell Line Bank), a liver cancer cell line SK-HEP-1 (Korean Cell line Bank), and a breast cancer cell line MDA-MB-231 (Korean Cell line Bank), a sulforhodamine B (SRB) assay which is a method of measuring cell viability was used for measuring apoptosis effects of Asperphenin.
(§1) In detail, 190 μl of a cell suspension at a concentration of 3.5×10^4 cells/ml was inoculated in each well of a 96-well microplate. 0.8 μM, 4 μM, 20 μM, or 100 μM of Asperphenin was added to the cell culture medium, and cultured at a temperature of 37° C. for 72 hours under the condition of 5% CO2. After incubation, 50 μl of 50% (v/v) trichloroacetic acid solution (Sigma Aldrich) was added to each well, and then, incubated at a temperature of 4° C. for 30 minutes, to thereby fix the cells thereto. The fixed cells were washed with water five times, and then, dried in the air.
Next, 80 μl of a 0.4% (w/v) SRB aqueous solution (Sigma Aldrich) containing 1% (v/v) acetic acid (DUKSAN) was added to each well, incubated at room temperature for 1 hour to stain cells therein, and the stained cells washed with water and dried. The cells were dissolved by adding 200 μl of 10 mM Tris (pH 10.0) (Sigma Aldrich) to each well, and then, the number of living cells was calculated by measuring the absorbance thereof at 515 nm. The concentration of the compound inhibiting cell growth to 50% based on the number of the living cells, i.e., 50% inhibition concentration (IC50) was calculated, and the results are shown in Table 3. Here, as a positive control, etoposide (Sigma Aldrich) was used.

[2] = system: colon cancer cell line LS174T; assay: SRB cell viability assay, colon cancer cell line LS174T; type: cell-based; settings: Homo sapiens, read-out: Growth inhibition value of cancer cell (IC50)
Description: as §1
Next, 80 μl of a 0.4% (w/v) SRB aqueous solution (Sigma Aldrich) containing 1% (v/v) acetic acid (DUKSAN) was added to each well, incubated at room temperature for 1 hour to stain cells therein, and the stained cells washed with water and dried. The cells were dissolved by adding 200 μl of 10 mM Tris (pH 10.0) (Sigma Aldrich) to each well, and then, the number of living cells was calculated by measuring the absorbance thereof at 515 nm. […]
From the colon cancer cell lines HCT116 (ATCC), HCT15 (Korean Cell Line Bank), LS174T (Korean Cell Line Bank), RKO(ATCC), and SW480(ATCC), cell growth inhibition concentrations (IC50, μM) were calculated as described in Example 2-1, and the results are shown in Table 4. […]

RKO cells [3] = assay: Annexin V-FITC/PI apoptosis measurement by flow cytometry; type: cell-based, human; settings: 48 hours, 0.625-10 μM, FIG. 4
Description: The process of apoptosis in the cell line RKO by Asperphenin B was confirmed using a Annexin V-FITC apoptosis measuring kit (manufactured by D Pharmingen).
As described in Example 2-3, Asperphenin B at the concentration of 0.625 μM, 1.25 μM, 2.5 μM, 5 μM, or 10 μM was added to the RKO cells, cultured for 48 hours to obtain cells. 300 μl of 1× binding buffer was added to the obtained cells, and well mixed together. Then, 5 μl of Annexin V and 5 μl of PI were added to 100 μl of the cell mixture, and allowed to react at room temperature for 15 minutes in the shaded stated. 400 μl of 1× binding buffer was added to the reactants, a FACSCalibur flow cytometer (BD FACSCalibur, BD Biosciences) was used to analyze the cell apoptosis. Based on the flow cytometry results, ratios of cells that were not stained (i.e., living cells), cells stained with annexin V (i.e., cells apoptosized at the early state), cells stained with both PI and annexin V (i.e., cells apoptosized at the late state or cells necrotized), or cells stained with PI only (i.e., cells necrotized) were calculated. As a negative control, cells to which Asperphenin B was not added were used.

[4] = system: apoptosis-related proteins in RKO cells; assay: Immunoblotting of apoptosis-related proteins; type: cell-based, human
Description: As described in Example 2-3, cells were obtained in a way that Asperphenin B at the concentration of 0.625 μM, 1.25 μM, 2.5 μM, 5 μM, or 10 μM was added to the RKO cells, and then, cultured for 48 hours. However, cells were obtained in a way that Asperphenin B at the concentration of 5 μM was added to the RKO cells, and then, cultured for 0 to 48 hours. Then, proteins were obtained from the obtained cells.
Also, regarding the expression of apoptosis-related proteins, anti-ATM antibody (Cell Signaling Technology), anti-p-Chk (Thr68) antibody (Cell Signaling Technology), anti-Chk antibody (Cell Signaling Technology), anti-p-H2AX antibody (Cell Signaling Technology), anti-p53 antibody (Santa Cruz), anti-Bax antibody (Santa Cruz), anti-BID antibody (Cell Signaling Technology), anti-Caspase-8 antibody (Cell Signaling Technology), anti-Caspase-3 antibody (Cell Signaling Technology), anti-Caspase-9 antibody (Cell Signaling Technology), anti-cleaved PARP antibody (BD Biosciences), and anti-β-actin antibody (Santa Cruz) were used, to thereby perform immunoblotting.

RKO cells [5] = assay: Tumor xenograft mouse model, RKO human colon cancer cell line; type: in vivo; settings: nude mouse; for Tumor growth inhibition ratio: 21 days
Description: The anticancer effect of […] was verified in a tumor xenograft mouse model to which human colon cancer cell line was transplanted. In detail, RKO cells were subcutaneously injected at a concentration of 3.5×10^6 cells/150 μl into the right side of a nude mouse (Central Lab. Aminol Inc., hairless and small mouse that was tymus free and had dried beard at birth). […] The tumor size was measured by using a digital caliper for 21 days at intervals of 3 to 4 days. Here, as a control, a nude mouse to which […] was not administered was used (n=5).

- IC50 [1]: 6 µM
- IC50 [2]: 1.84 µM
Structure (SMILES): CCCCCCCCC[C@@H](O)CC(=O)N[C@@H](CC(N)=O)C(=O)N[C@@H](CCC(N)=O)C(=O)N[C@H](CC(=O)c1cc(C)cc(O)c1C(=O)c1c(O)cccc1O)CC(C)C [Asperphenin B]
- Ratio of necrotic cells compared to control (RKO cells [3]): increased
- Ratios of cells of early apoptosis and cells of late apoptosis or necrosis compared to control (RKO cells [3]): increased
- Expression of p53 and Bax ([4]; 5 μM, 0 to 48 hours, FIG. 6B): increased in a time-dependent manner
- Expression of p-Chk2 (Thr68), p-H2AX (Ser139), cleaved caspase-8, cleaved caspase-9, cleaved caspase-3, and PARP ([4]; 5 μM, 48 hours, FIG. 6B): increased
- Expression of ATM protein ([4]; 48 hours, 0.625-10 μM, FIG. 6A): increased in a concentration-dependent manner
- Expression of p53 protein ([4]; 48 hours, 0.625-10 μM, FIG. 6A): increased in a concentration-dependent manner
- Chk2 and H2AX, sub-regulatory factors of ATM ([4]; 48 hours, FIG. 6A): phosphorylated to be activated
- Cleavage of Bid, caspase-8, caspase-9, caspase-3 and PARP ([4]; 48 hours, FIG. 6A): induced
- Expression of Bax ([4]; 48 hours, FIG. 6A): increased expression
- Tumor growth inhibition ratio (RKO cells [5]; 4 mg/kg intraperitoneally 3 times a week): 38.9%
- Inhibition of tumor growth (RKO cells [5]; 4 mg/kg or 8 mg/kg): observed in a compound concentration-dependent manner
- Tumor growth inhibition ratio (RKO cells [5]; 8 mg/kg intraperitoneally 3 times a week): 68.7%
